In publication PMC11520585 (BMC Neuroscience, 2024):

Experiments:
Sigma2 receptor = conditions: read-out: Ki, Sigma2 receptor; competitive radioligand binding; cited from earlier work
µ-opioid receptors (MOR) = conditions: read-out: Ki, µ-opioid receptors (MOR); competitive radioligand binding; cited from earlier work
[1] = test system: vanadium-induced neurotoxicity; conditions: vanadium-exposed mice; cited from earlier work
C. elegans [2] = conditions: in vivo
[3] = test system: maximal electroshock seizures; conditions: 100 and 300 mg/kg (i.p.); cited from earlier work
[4] = molecular target: GluN1/GluN2B subtype receptors; conditions: read-out: mean IC50, GluN1/GluN2B; cited from earlier work
[5] = test system: organotypic hippocampal slice cultures; experiment: organotypic hippocampal slice culture neuroprotection assay; assay type: cell-based, rat; conditions: ZA-II-05 100 µM, NMDA 10 µM insult, P < 0.05
C. elegans [6] = assay type: in vivo; conditions: ZA-II-05 1 mg/ml treated groups, 24 h
C. elegans [7] = conditions: in vivo; remark: listed apart in the source
[8] = molecular target: GluN1/GluN2A subtype receptors; conditions: read-out: mean IC50, GluN1/GluN2A; cited from earlier work
Opioid receptors (KOR) = conditions: read-out: Ki, Opioid receptors (KOR); competitive radioligand binding; cited from earlier work
C. elegans [9] = assay type: in vivo; conditions: ZA-II-05 1 mg/ml treated groups, 24 h; remark: listed apart in the source

Fc1ccc(C2(NCCCOC3CCCCO3)CC3CCC2C3)cc1 (stereo not drawn) [ZA-II-05, 2-[4-Fluorophenyl]-N-(3-[tetrahydro-2H-pyran-2-yloxy]propyl) bicyclo [2.2.1] heptan-2-amine]
Ki (Sigma2 receptor): 5.5 nM
Ki (µ-opioid receptors (MOR)): 3040 nM
protection against neuronal damage [1]: considerable protection against neuronal damage
growth pattern (body length, body wall) (C. elegans [2]): reversed this effect
activity in maximal electroshock seizure (MES) assessment [3]: activity
IC50 [4]: 430 nM
neuroprotection (propidium iodide fluorescence intensity vs NMDA group) [5]: significant neuroprotective effect
mitochondrial density (fluorescence intensity) (C. elegans [6]): dense presence of mitochondria
mitochondrial superoxide (MitoSOX fluorescence), effect on vanadium-induced ROS (C. elegans [7]): alleviated
IC50 [8]: 518 nM
Ki (Opioid receptors (KOR)): 361 nM
nuclei in ventral nerve cord (DAPI) (C. elegans [9]): preserved the nucleus
